Assay results as given in patent publication US12187759B2, “TLR7 agonists” (Primmune Therapeutics, Inc., priority 2019, dated 2025).
Read-outs that look alike come from different tables or passages of the source.

What was measured:
[1] = test system: hPBMCs (Human Peripheral Blood Mononuclear Cells); assay: Induction of interferon-α in hPBMCs in vitro; type: cell-based; details: for Emax / minimal effective concentration: Homo sapiens, PBMC; for Emax: 24 h, peak IFNα2a as percentage of peak response of standard 2-Amino-7-(cyclopropylmethyl)-9-B-D-xylofuranosyl-7,9-dihydro-1H-purine-6,8-dione, averaged across donors, read-out: IFNrmax, Relative Maximal IFNα2a Production (%); for minimal effective concentration: minimal effective concentration for interferon-α production (generally at least 80 pg/ml above baseline), geometric mean across at least three donors, 24 hours, read-out: Weighted MEC; for Donor 1 IFNmax / Donor 2 IFNmax / Donor 3 IFNmax: maximum IFN at any concentration of the evaluated range; for Donor 2 MEC / Donor 1 MEC / Donor 3 MEC: interferon-α production
Description: Treatment of hPBMCs with a TLR7 agonist typically induces some production of interferon-α as well as lesser amounts of a variety of other cytokines and chemokines. A typical experiment uses hPBMCs isolated from a healthy donor and placed in replicate cell culture wells; typically 1.0-7.5×10^6 cells are placed in each well. A test compound is added and the cells are cultured for 24 hours at 37° C. in a humidified atmosphere containing 5% CO2 post-addition; untreated controls are included. Secreted interferon-α production is measured using an a multisubtype interferon-α ELISA kit like those from PBL Assay Sciences or specifically as IFNα2a as part of a panel of cytokines and chemokines using luminex methodologies.
The minimal effective concentration (MEC) is the minimum concentration in a dose response curve where a significant increase in interferon-α production (generally at least 80 pg/ml) is observed above baseline. MEC values for each compound are determined for at least three donors. The weighted MEC for each compound is the geometric mean of all individual MECs across all donors. Concentrations tested typically consist of a two-fold dilution series starting at 100 μM. In the calculation of weighted MEC, any individual MEC value greater the highest concentration tested is arbitrarily set to two times the highest concentration tested unless all MECs for a compound exceed this value. The maximal amount of IFNα2a for each donor is determined from dose dependence for each compound.
In order to normalize for variation in each hPBMC preparation, these values are first transformed by expressing as a percentage of peak response measured with a standard (2-Amino-7-(cyclopropylmethyl)-9-B-D-xylofuranosyl-7,9-dihydro-1H-purine-6,8-dione) and then averaging the results across all donors, this average referred to as IFNrmax.
IFNmax is the maximum amount of IFN observed at any concentration across the evaluated concentration range. MEC and IFNmax values for three select compound are shown for three donors (Table 3). The range of tested concentrations were 0.625-5 μM for Imiquimod, 3.125-100 μM for both Compound A and Compound 1, 12.5-100 μM for Compound 2.

human TLR7 = molecular target: T1, human TLR7 (Homo sapiens, UniProt Q9NYK1); assay: TLR7 reporter cell assay (HEK293 cells stably expressing human TLR7 with NF-κB-driven SEAP reporter); type: cell-based; details: for EC50: fit of SEAP dose response, ymax from 28.5 μM resiquimod
T1 construct: host or cells: HEK293
T1 sequence (Q9NYK1 27-1049): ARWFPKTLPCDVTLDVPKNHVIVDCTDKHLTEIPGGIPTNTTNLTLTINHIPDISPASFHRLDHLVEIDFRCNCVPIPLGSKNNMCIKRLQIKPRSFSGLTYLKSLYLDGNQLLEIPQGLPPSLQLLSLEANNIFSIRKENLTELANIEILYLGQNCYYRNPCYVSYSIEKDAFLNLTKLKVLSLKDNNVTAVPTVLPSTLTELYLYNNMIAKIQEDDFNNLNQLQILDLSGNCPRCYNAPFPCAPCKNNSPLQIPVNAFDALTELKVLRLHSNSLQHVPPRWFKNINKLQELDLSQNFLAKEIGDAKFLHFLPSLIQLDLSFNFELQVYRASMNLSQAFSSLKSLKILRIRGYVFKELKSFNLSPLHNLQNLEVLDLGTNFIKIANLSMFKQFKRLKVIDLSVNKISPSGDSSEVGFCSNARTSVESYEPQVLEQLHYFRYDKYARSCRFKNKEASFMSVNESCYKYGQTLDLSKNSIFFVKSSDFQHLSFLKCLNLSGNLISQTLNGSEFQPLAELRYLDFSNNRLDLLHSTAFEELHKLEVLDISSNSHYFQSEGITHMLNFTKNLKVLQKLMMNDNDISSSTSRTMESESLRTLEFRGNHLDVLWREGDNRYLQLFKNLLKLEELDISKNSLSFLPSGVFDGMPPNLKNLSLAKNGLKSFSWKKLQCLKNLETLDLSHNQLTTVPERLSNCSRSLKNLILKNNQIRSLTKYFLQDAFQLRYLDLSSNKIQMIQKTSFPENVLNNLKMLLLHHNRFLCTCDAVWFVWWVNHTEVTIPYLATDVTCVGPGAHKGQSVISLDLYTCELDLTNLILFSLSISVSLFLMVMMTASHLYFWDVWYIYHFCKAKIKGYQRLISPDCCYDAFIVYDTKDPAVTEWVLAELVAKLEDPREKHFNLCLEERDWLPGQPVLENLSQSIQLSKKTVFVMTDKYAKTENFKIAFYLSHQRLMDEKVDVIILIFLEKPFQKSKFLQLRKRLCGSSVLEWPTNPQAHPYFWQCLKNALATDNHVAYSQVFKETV
From the text: The engagement of TLRs by cognate ligands triggers downstream signaling cascades, leading to the activation of NF-κB and other transcription factors which initiate various immunomodulatory effects. The human embryonic kidney cell line, HEK293, is essentially non-responsive to TLR agonists, but ectopic expression of TLRs in these cells allows cognate agonists to activate endogenous NF-κB. Accordingly, the HEK293-TLR-NF-κB inducible reporter system is used to assay TLR agonists.
HEK293 cell lines stably expressing human TLR7 or TLR8 together with an NF-κB-driven-secreted alkaline phosphatase (SEAP) reporter were invented at InvivoGen (San Diego, California, USA) and used to assess compounds of the present invention for TLR7 and TLR8 agonist activities. Cells were seeded at 2-5×10^4 cells/well in 96 well plates (200 μl/well) and treated with various concentrations of compound (10 μl) for 15-24 hours. SEAP activity was determined by measuring OD at 650 nm; the media used to culture the cell lines contains the reagents required for SEAP detection. The EC50 values in Table 1 are calculated from fitting the dose response of measured SEAP activity for each compound to the following equation: Y=ymax*c^nh/(EC50^nh+c^nh)+blank where Y is the experimentally measured OD650 at concentration c of test article, blank is the observed OD650 in the absence of TLR7 agonist, ymax is the difference between the measured OD650 in the presence of 28.5 μM resiquimod and the blank and values of EC50 and nh are determined by nonlinear least squares analysis. Resiquimod is a known TLR7 and TLR8 agonist.
Compound A is 5-amino-3-((2R,3R,5S)-3-hydroxy-5-((S)-1-hydroxypropyl)tetrahydrofuran-2-yl)thiazolo[4,5-d]pyrimidine-2,7(3H,6H)-dione)

[2] = HEK293, 500 μM compound, SEAP activity (OD 650 nm) relative to 28.5 μM resiquimod, 15-24 hours, read-out: Response at 500 μM Compound as a Percent of Resiquimod Response
[3] = HEK293, read-out: Response at 500 μM Compound as a Percent of Resiquimod Response

Work on `CC[C@H](O)[C@@H]1C[C@@H](O)[C@H](n2c(=O)n(C[C@@H](C)O)c3c(=O)[nH]c(N)nc32)O1` (single isomer, unassigned) [Compound 33] yielded an Emax [1] of 143%, a minimal effective concentration [1] of 9.9 µM and an Emax at 500 µM (human TLR7; [2]) of 73%. It also gave an EC50 (human TLR7; 15-24 hours) of 287 µM.

`CC[C@H](O)[C@@H]1C[C@@H](O)[C@H](n2c(=O)n(C[C@H](C)O)c3c(=O)[nH]c(N)nc32)O1` (single isomer, unassigned) [Compound 34] was tested, and the Emax [1] was 272%, the minimal effective concentration [1] was 1.6 µM and the Emax at 500 µM (human TLR7; [2]) was 81%. For the same compound, the EC50 (human TLR7; 15-24 hours) was 137 µM.

For `C#CCn1c(=O)n([C@@H]2O[C@H]([C@@H](O)CC)C[C@H]2O)c2nc(N)[nH]c(=O)c21` [Compound 1, 2-amino-9-((2R,3R,5S)-3-hydroxy-5-((S)-1-hydroxypropyl)tetrahydrofuran-2-yl)-7-(prop-2-yn-1-yl)-7,9-dihydro-1H-purine-6,8-dione], the “Donor 1 IFNmax” value [1] was 3775 pg/mL, the “Donor 2 MEC” value [1] was 6.25 µM and the “Donor 2 IFNmax” value [1] was 2129 pg/mL. The “Donor 3 IFNmax” value [1] was 5623 pg/mL, the Emax [1] was 316% and the minimal effective concentration [1] was ≤ 2.9 µM. For the same compound, the “IFNmax of Compound 1 relative to Compound A” value ([1]; donor 1) was 3.6 fold, the “IFNmax of Compound 1 relative to imiquimod” value ([1]; donor 1) was 4.8 fold and the “IFNmax of Compound 1 relative to Compound A” value ([1]; donor 2) was 4.4 fold. The “IFNmax of Compound 1 relative to imiquimod” value ([1]; donor 2) was 11.0 fold, the “IFNmax of Compound 1 relative to Compound A” value ([1]; donor 3) was 2.5 fold and the “IFNmax of Compound 1 relative to imiquimod” value ([1]; donor 3) was 4.2 fold. For the same compound, the “potency (MEC) of Compound 1 relative to Compound 2” value ([1]; in every case (Donors 1, 2 and 3)) was ≥ 16 fold, the Emax at 500 µM (human TLR7; [2]) was 67% and the EC50 (human TLR7; 15-24 hours) was 103 µM.

For `C#CCn1c(=O)n([C@@H]2O[C@H]([C@H](O)CC)C[C@H]2O)c2nc(N)[nH]c(=O)c21` [Compound 2, 2-amino-9-((2R,3R,5S)-3-hydroxy-5-((R)-1-hydroxypropyl)tetrahydrofuran-2-yl)-7-(prop-2-yn-1-yl)-7,9-dihydro-1H-purine-6,8-dione], the “Donor 1 MEC” value [1] was 50 µM, the “Donor 1 IFNmax” value [1] was 4523 pg/mL and the “Donor 2 MEC” value [1] was >100 µM. The “Donor 2 IFNmax” value [1] was 9 pg/mL, the “Donor 3 MEC” value [1] was 100 µM and the “Donor 3 IFNmax” value [1] was 3110 pg/mL. The Emax at 500 µM (human TLR7; [3]) was < 5%.

`C=C=Cn1c(=O)n([C@@H]2O[C@H]([C@H](O)CC)C[C@H]2O)c2nc(N)[nH]c(=O)c21` [Compound 3, 2-amino-9-((2R,3R,5S)-3-hydroxy-5-((R)-1-hydroxypropyl)tetrahydrofuran-2-yl)-7-(propa-1,2-dien-1-yl)-7,9-dihydro-1H-purine-6,8-dione] was tested, and the Emax at 500 µM (human TLR7; [3]) was < 5%.

Compound `C#CCn1c(=O)n([C@@H]2O[C@H]([C@@H](O)C(F)(F)F)C[C@H]2O)c2nc(N)[nH]c(=O)c21` [Compound 10, 2-Amino-9-((2R,3R,5S)-3-hydroxy-5-((R)-2,2,2-trifluoro-1-hydroxyethyl)tetrahydrofuran-2-yl)-7-(prop-2-yn-1-yl)-7,9-dihydro-1H-purine-6,8-dione] has an Emax at 500 µM (human TLR7; [3]) of 72% and an EC50 (human TLR7; 15-24 hours) of 311 µM.

With `C#CCn1c(=O)n([C@@H]2O[C@H]([C@H](O)C(F)(F)F)C[C@H]2O)c2nc(N)[nH]c(=O)c21` [Compound 11, 2-Amino-9-((2R,3R,5S)-3-hydroxy-5-((S)-2,2,2-trifluoro-1-hydroxyethyl)tetrahydrofuran-2-yl)-7-(prop-2-yn-1-yl)-7,9-dihydro-1H-purine-6,8-dione] the Emax at 500 µM (human TLR7; [3]) was < 5%.

`C#CCn1c(=O)n([C@@H]2O[C@H]([C@H](O)CC)[C@H](F)[C@H]2O)c2nc(N)[nH]c(=O)c21` [Compound 12, 2-Amino-9-((2R,3S,4R,5R)-4-fluoro-3-hydroxy-5-((R)-1-hydroxypropyl)tetrahydrofuran-2-yl)-7-(prop-2-yn-1-yl)-7,9-dihydro-1H-purine-6,8-dione] was tested, and the Emax at 500 µM (human TLR7; [3]) was 6% and the EC50 (human TLR7; 15-24 hours) was > 500 µM.

For `C#CCn1c(=O)n([C@@H]2O[C@H](C(=O)CC)C[C@H]2O)c2nc(N)[nH]c(=O)c21` [Compound 37, 2-Amino-9-((2R,3R,5S)-3-hydroxy-5-propionyltetrahydrofuran-2-yl)-7-(prop-2-yn-1-yl)-7,9-dihydro-1H-purine-6,8-dione], the Emax at 500 µM (human TLR7; [3]) was 40% and the EC50 (human TLR7; 15-24 hours) was 462 µM.

With `C#CCn1c(=O)n([C@@H]2O[C@@H](C(=O)CC)C[C@H]2O)c2nc(N)[nH]c(=O)c21` [Compound 38, 2-Amino-9-((2R,3R,5R)-3-hydroxy-5-propionyltetrahydrofuran-2-yl)-7-(prop-2-yn-1-yl)-7,9-dihydro-1H-purine-6,8-dione] the Emax at 500 µM (human TLR7; [3]) was < 5%.

For `C#CCn1c(=O)n([C@@H]2O[C@H](CO)[C@@H](F)[C@H]2O)c2nc(N)[nH]c(=O)c21` [Compound B, 2-Amino-9-((2R,3S,4S,5R)-4-fluoro-3-hydroxy-5-(hydroxymethyl)tetrahydrofuran-2-yl)-7-(prop-2-yn-1-yl)-7,9-dihydro-1H-purine-6,8-dione, reference compound], the Emax [1] was 260% and the minimal effective concentration [1] was 17.9 µM.

With `CC(C)Cn1cnc2c(N)nc3ccccc3c21` [Imiquimod, reference compound] the “Donor 1 MEC” value [1] was 5 µM, the “Donor 1 IFNmax” value [1] was 793 pg/mL and the “Donor 2 MEC” value [1] was 5 µM. The “Donor 2 IFNmax” value [1] was 193 pg/mL, the “Donor 3 MEC” value [1] was 1.25 µM and the “Donor 3 IFNmax” value [1] was 1350 pg/mL.
